Experimental data as given in US20260015363A1, “SUBSTITUTED PYRIMIDINE-FUSED RING INHIBITOR, METHOD FOR PREPARING SAME, AND USE THEREOF” (Suzhou Zelgen Biopharmaceuticals Co., Ltd., priority 2022, published 2026).
pIC50: −log10 of the molar value. Read-outs that look alike come from different tables or passages of the source.

Key:
AsPC-1 (G12D) = test: KRAS mutant cell proliferation inhibition assay (CellTiter-Glo 3D), AsPC-1; type: cell-based, human; conditions: AsPC-1 (G12D) cells, 7 days
Method: (§1) Positive control: MRTX1133
(§2) • (a) The cells were thawed in T75 cell culture flasks: • (b) When 80%-90% cell confluence was achieved, the cells were passaged.
(§3) The diluted test compound was added to a 384-well cell culture plate using a nanoliter pipetting system, and replicate wells were set. An equal volume of medium was added to the positive control group; an equal volume of DMSO was added to the negative control group. The plate was centrifuged at 1000 rpm at room temperature for 1 min.
(§4) The cells were seeded into a) 384-well culture plate. An equal volume of cells was added to the negative control group, and only an equal volume of medium was added to the positive control group. The plate was centrifuged at 1000 rpm at room temperature for 1 min. The final DMSO concentration in the final compound was 0.5%. The plate was incubated in a thermostatic incubator at 37° C. with 5% CO2 for 7 days.
(§5) CellTiter-Glo® 3D was added to b) 384-well cell culture plate at 20 μL/well. The plate was shaken at 320 rpm in the dark for 20 min, and incubated at room temperature in the dark for 2 h. The luminescence values were read using an Envision multi-mode microplate reader.
(§6) The inhibition rates (IRs) of the test compounds were calculated according to the following formula: IR (%)=(1−(RLU compound−RLU blank control)/(RLU vehicle control−RLU blank control))×100%. The inhibition rates of the compounds at different concentrations were calculated in Excel, and then inhibition curves were plotted and relevant parameters including minimum inhibition rate, maximum inhibition rate and IC50 were calculated using GraphPad Prism software.

PSN-1 (G12R) = test: KRAS mutant cell proliferation inhibition assay (CellTiter-Glo 3D), PSN-1; type: cell-based; conditions: PSN-1 (G12R) cells, 7 days
Method: as §1, §2, §3, §4, §5, §6

MNK1 (WT) = test: Cell proliferation inhibition assay (CellTiter-Glo 3D), MNK1; type: cell-based, human; conditions: MNK1 (WT) cells, 7 days
Method: as §1, §2, §3, §4, §5, §6

H727 (G12V) = test: KRAS mutant cell proliferation inhibition assay (CellTiter-Glo 3D), H727; type: cell-based, human; conditions: H727 (G12V) cells, 7 days
Method: as §1, §2, §3, §4, §5, §6

SW480 (G12V) = test: KRAS mutant cell proliferation inhibition assay (CellTiter-Glo 3D), SW480; type: cell-based; conditions: Homo sapiens, 168 h, SW480 (G12V) cells, 7 days
Method: as §1, §2, §3, §4, §5, §6

Compound | pIC50 (AsPC-1 (G12D); Homo sapiens, ASPC1, 168 h) | pIC50 (PSN-1 (G12R); Homo sapiens, PSN1, 168 h) | pIC50 (MNK1 (WT); Homo sapiens, 168 h) | pIC50 (H727 (G12V); Homo sapiens, NCI-H727, 168 h) | pIC50 (AsPC-1 (G12D)) | pIC50 (PSN-1 (G12R); read-out: PSN1 IC50) | pIC50 (MNK1 (WT)) | pIC50 (H727 (G12V)) | pIC50 (SW480 (G12V))
CCc1c(F)ccc2cc(O)cc(N3CCc4c(nc(OC[C@@]56CCCN5C[C@@]5(CC5(F)F)C6)nc4N4CCCn5nc(C(=O)N(C)C)cc5C4)C3)c12 [Example B-13, 5-(2-(((1S,7a'S)-2,2-Difluorodihydro-1′H,3′H-spiro[cyclopropane-1,2′-pyrrolizin]-7a′ (5′H)-yl)methoxy)-7-(8-ethyl-7-fluoro-3-hydroxynaphthalen-1-yl)-5,6,7,8-tetrahydropyrido[3,4-d]pyrimidin-4-yl)-N,N-dimethyl-5,6,7,8-tetrahydro-4H-pyrazolo[1,5-a][1,4]diazepine-2-carboxamide] | 8.05 | 5.63 | 7.61 | 7.32 | – | – | – | – | –
CCc1c(F)ccc2cc(O)cc(-c3ncc4c(N5CCC[C@](C)(O)C5)nc(OCC56CCCN5CC5(C6)CC5(F)F)nc4c3F)c12 (stereo in doubt) [Example A-13A, (S)-1-(2-(((trans)-2,2-difluorodihydro-1′H,3′H-spiro[cyclopropane-1,2′-pyrrolizin]-7a′ (5′H)-yl)methoxy)-7-(8-ethyl-7-fluoro-3-hydroxynaphthalen-1-yl)-8-fluoropyrido[4,3-d]pyrimidin-4-yl)-3-methylpiperidin-3-ol] | – | – | – | – | < 6.00 | < 5.00 | 6.20 | 5.70 | –
CN(C)C(=O)c1cc2n(n1)CCCN(c1nc(OC[C@@]34CCCN3C[C@@]3(CC3(F)F)C4)nc3c(F)c(-c4cc(N)cc(Cl)c4C(F)(F)F)ncc13)C2 [Example A-25, 5-(7-(5-Amino-3-chloro-2-(trifluoromethyl)phenyl)-2-(((1S,7a'S)-2,2-difluorodihydro-1′H,3′H-spiro[cyclopropane-1,2′-pyrrolizin]-7a′ (5′H)-yl)methoxy)-8-fluoropyrido[4,3-d]pyrimidin-4-yl)-N,N-dimethyl-5,6,7,8-tetrahydro-4H-pyrazolo[1,5-a][1,4]diazepine-2-carboxamide] | 7.47 | < 5.00 | 7.18 | 6.85 | – | – | – | – | –
CCc1c(F)ccc2cc(O)cc(-c3ncc4c(N5CCC[C@@](C)(O)C5)nc(OCC56CCCN5CC5(C6)CC5(F)F)nc4c3F)c12 (stereo in doubt) [Example A-13B, (R)-1-(2-(((trans)-2,2-difluorodihydro-l′H,3′H-spiro[cyclopropane-1,2′-pyrrolizin]-7a′ (5′H)-yl)methoxy)-7-(8-ethyl-7-fluoro-3-hydroxynaphthalen-1-yl)-8-fluoropyrido[4,3-d]pyrimidin-4-yl)-3-methylpiperidin-3-ol] | – | – | – | – | 7.73 | 6.30 | 7.89 | 7.29 | –
CCc1c(F)ccc2cc(O)cc(-c3ncc4c(N5CCCn6nc(C(=O)N(C)C)cc6C5)nc(OC[C@@]56CCCN5C[C@@]5(CC5(F)F)C6)nc4c3F)c12 [Example A-24, 5-(2-(((1S,7a'S)-2,2-Difluorodihydro-1′H,3′H-spiro[cyclopropane-1,2′-pyrrolizin]-7a′ (5′H)-yl)methoxy)-7-(8-ethyl-7-fluoro-3-hydroxynaphthalen-1-yl)-8-fluoropyrido[4,3-d]pyrimidin-4-yl)-N,N-dimethyl-5,6,7,8-tetrahydro-4H-pyrazolo[1,5-a][1,4]diazepine-2-carboxamide] | 7.95 | < 5.00 | 7.71 | 6.99 | – | – | – | – | –
CCc1c(F)ccc2cc(O)cc(-c3ncc4c(N5CCC[C@]6(CCO6)C5)nc(OC[C@@]56CCCN5C[C@@]5(CC5(F)F)C6)nc4c3F)c12 (single isomer, unassigned) [Example A-16B] | 6.41 | – | – | – | – | – | – | – | 6.18
CCc1c(F)ccc2cc(O)cc(-c3ncc4c(N5CCCOC6CC65)nc(OC[C@@]56CCCN5C[C@@]5(CC5(F)F)C6)nc4c3F)c12 (stereo partly drawn) [Example A-28, 4-(4-(2-Oxa-6-azabicyclo[5.1.0]octan-6-yl)-2-(((1S,7a'S)-2,2-difluorodihydro-1′H,3′ H-spiro[cyclopropane-1,2′-pyrrolizin]-7a′ (5′H)-yl)methoxy)-8-fluoropyrido[4,3-d]pyrimidin-7-yl)-5-ethyl-6-fluoronaphthalen-2-ol] | 7.56 | – | – | – | – | – | – | – | 7.43
CCc1c(F)ccc2cc(O)cc(-c3ncc4c(N5CCOCC(C)(O)C5)nc(OC[C@@]56CCCN5C[C@@]5(CC5(F)F)C6)nc4c3F)c12 (stereo partly drawn) [Example A-38, 4-(2-(((1S,7a'S)-2,2-Difluorodihydro-1′H,3′H-spiro[cyclopropane-1,2′-pyrrolizin]-7a′ (5′H)-yl)methoxy)-7-(8-ethyl-7-fluoro-3-hydroxynaphthalen-1-yl)-8-fluoropyrido[4,3-d]pyrimidin-4-yl)-6-methyl-1.4-oxazenan-6-ol] | 7.50 | < 5.00 | 7.67 | 6.93 | – | – | – | – | –
CN(c1nc(OC[C@@]23CCCN2C[C@@]2(CC2(F)F)C3)nc2c(F)c(-c3cc(N)cc(Cl)c3C(F)(F)F)ncc12)[C@H]1C[C@@H]1F [Example A-46, 7-(5-Amino-3-chloro-2-(trifluoromethyl)phenyl)-2-(((15,7a'S)-2,2-difluorodihydro-1′H,3′H-spiro[cyclopropane-1,2′-pyrrolizin]-7a′ (5′H)-yl)methoxy)-8-fluoro-N-((trans)-2-fluorocyclopropvl)-N-methylpyrido[4,3-d]pyrimidin-4-amine] | 6.14 | – | – | – | – | – | – | – | 6.32
CCc1c(F)ccc2cc(O)cc(-c3ncc4c(N(C)[C@H]5C[C@@H]5F)nc(OC[C@@]56CCCN5C[C@@]5(CC5(F)F)C6)nc4c3F)c12 [Example A-45, 4-(2-(((1,5,7a'S)-2,2-Difluorodihydro-1′H,3′H-spiro[cyclopropane-1,2′-pyrrolizin]-7a′ (5′H)-yl)methoxy)-8-fluoro-4-(((trans)-2-fluorocyclopropyl)(methyl)amino)pyrido[4,3-d]pyrimidin-7-yl)-5-ethyl-6-fluoronaphthalen-2-ol] | 7.13 | – | – | – | – | – | – | – | 7.39
CCc1c(F)ccc2cc(O)cc(-c3ncc4c(N5CCC[C@@]6(C5)NC(=O)NC6=O)nc(OC[C@@]56CCCN5C[C@@]5(CC5(F)F)C6)nc4c3F)c12 [Example A-26, (S)-7-(2-(((1S,7a'S)-2,2-Difluorodihydro-1′H,3′H-spiro[cyclopropane-1,2′-pyrrolizin]-7a′ (5′H)-yl)methoxy)-7-(8-ethyl-7-fluoro-3-hydroxynaphthalen-1-yl)-8-fluoropyrido[4,3-d]pyrimidin-4-yl)-1,3,7-triazaspiro[4.5]decane-2,4-dione] | < 6.00 | < 5.00 | 5.79 | 5.13 | – | – | – | – | –
Nc1cc(Cl)c(C(F)(F)F)c(-c2ncc3c(N4CCCC5(CCO5)C4)nc(OC[C@@]45CCCN4C[C@@]4(CC4(F)F)C5)nc3c2F)c1 (stereo partly drawn) [Example A-14, 3-Chloro-5-(2-(((1S,7a'S)-2,2-difluorodihydro-1′H,3′H-spiro[cyclopropane-1,2′-pyrrolizin]-7a′ (5′H)-yl)methoxy)-8-fluoro-4-(1-oxa-6-azaspiro[3.5]nonan-6-yl)pyrido[4,3-d]pyrimidin-7-yl)-4-(trifluoromethyl)aniline] | 7.21 | < 5.00 | 6.88 | 6.62 | – | – | – | – | –
C#Cc1c(F)ccc2cc(O)cc(-c3ncc4c(N5CCCC6(CCO6)C5)nc(OC[C@@]56CCCN5C[C@@]5(CC5(F)F)C6)nc4c3F)c12 (some centres unmarked) [Example A-15, 4-(2-(((1.S,7a'S)-2,2-difluorodihydro-1′H,3′H-spiro[cyclopropane-1,2′-pyrrolizin]-7a′ (5′H)-yl)methoxy)-8-fluoro-4-(1-oxa-6-azaspiro[3.5]nonan-6-yl)pyrido[4,3-d]pyrimidin-7-yl)-5-ethynyl-6-fluoronanhthalen-2-ol] | 6.79 | < 5.00 | 6.77 | 6.35 | – | – | – | – | –
CC1(O)COCCN(c2nc(OC[C@@]34CCCN3C[C@@]3(CC3(F)F)C4)nc3c(F)c(-c4cc(N)cc(Cl)c4C(F)(F)F)ncc23)C1 (stereo partly drawn) [Example A-39, 4-(7-(5-Amino-3-chloro-2-(trifluoromethyl)phenyl)-2-(((1S,7a'S)-2,2-difluorodihydro-1′H,3′H-spiro[cyclopropane-1,2′-pyrrolizin]-7a′ (5′H)-yl)methoxy)-8-fluoropyrido[4,3-d]pyrimidin-4-yl)-6-methyl-1.4-oxazenan-6-ol] | 6.53 | < 5.00 | 6.56 | 6.22 | – | – | – | – | –
CCc1c(F)ccc2cc(O)cc(-c3ncc4c(N5CCC6CCC(C5)O6)nc(OC[C@@]56CCCN5C[C@@]5(CC5(F)F)C6)nc4c3F)c12 (some centres unmarked) [Example A-31] | 6.13 | – | – | – | – | – | – | – | 6.19
